{
  "source": "patent US7381744B1",
  "about": "“Method of treating osteoporosis comprising vacuolar-type (H+)-ATPase-inhibiting compounds” (The United States of America as represented by the …, priority 1999, dated 2008)",
  "key": {"[1]": {"tested_on": "MDA-N", "assay": "NCI 60 cell-line screen", "format": "cell-based", "settings": "Homo sapiens, Breast, averaged, quadruplicate testing, read-out: negative log10 GI50 (converted)", "text": "(§1) It is the concentration where 100×(T−To)/To=−50=PG. […] Res., 34, 91-109 (1995)."}, "[2]": {"tested_on": "SK-MEL-5", "assay": "NCI 60 cell-line screen", "format": "cell-based", "settings": "Homo sapiens, Melanoma, averaged, quadruplicate testing, read-out: negative log10 GI50 (converted)", "text": "as §1"}, "[3]": {"tested_on": "U251", "assay": "NCI 60 cell-line screen", "format": "cell-based", "settings": "Homo sapiens, U-251, Brain, averaged, quadruplicate testing, read-out: negative log10 GI50 (converted)", "text": "as §1"}, "[4]": {"tested_on": "T-47D", "assay": "NCI 60 cell-line screen", "format": "cell-based", "settings": "Homo sapiens, T47D, Breast, averaged, quadruplicate testing, read-out: negative log10 GI50 (converted)", "text": "as §1"}, "[5]": {"tested_on": "SF-268", "assay": "NCI 60 cell-line screen", "format": "cell-based", "settings": "Homo sapiens, Brain, averaged, quadruplicate testing, read-out: negative log10 GI50 (converted)", "text": "as §1"}, "[6]": {"tested_on": "SK-MEL-28", "assay": "NCI 60 cell-line screen", "format": "cell-based", "settings": "Homo sapiens, Melanoma, averaged, quadruplicate testing, read-out: negative log10 GI50 (converted)", "text": "as §1"}, "[7]": {"tested_on": "MOLT-4", "assay": "NCI 60 cell-line screen", "format": "cell-based", "settings": "Homo sapiens, Leukemia, averaged, quadruplicate testing, read-out: negative log10 GI50 (converted)", "text": "as §1"}, "[8]": {"tested_on": "RXF-393", "assay": "NCI 60 cell-line screen", "format": "cell-based", "settings": "Homo sapiens, Kidney, averaged, quadruplicate testing, read-out: negative log10 GI50 (converted)", "text": "as §1"}, "[9]": {"tested_on": "HCT-15", "assay": "NCI 60 cell-line screen", "format": "cell-based", "settings": "Homo sapiens, Colon, averaged, quadruplicate testing, read-out: negative log10 GI50 (converted)", "text": "as §1"}, "[10]": {"tested_on": "ACHN", "assay": "NCI 60 cell-line screen", "format": "cell-based", "settings": "Homo sapiens, Kidney, averaged, quadruplicate testing, read-out: negative log10 GI50 (converted)", "text": "as §1"}, "[11]": {"tested_on": "NCI-H322M", "assay": "NCI 60 cell-line screen", "format": "cell-based", "settings": "Homo sapiens, Lung, averaged, quadruplicate testing, read-out: negative log10 GI50 (converted)", "text": "as §1"}, "[12]": {"tested_on": "OVCAR-3", "assay": "NCI 60 cell-line screen", "format": "cell-based", "settings": "Homo sapiens, Ovary, averaged, quadruplicate testing, read-out: negative log10 GI50 (converted)", "text": "as §1"}, "[13]": {"tested_on": "KM12", "assay": "NCI 60 cell-line screen", "format": "cell-based", "settings": "Homo sapiens, Colon, averaged, quadruplicate testing, read-out: negative log10 GI50 (converted)", "text": "as §1"}, "[14]": {"tested_on": "MCF-7-ADR-RES", "assay": "NCI 60 cell-line screen", "format": "cell-based", "settings": "Homo sapiens, Breast, averaged, quadruplicate testing, read-out: negative log10 GI50 (converted)", "text": "as §1"}, "[15]": {"tested_on": "NCI-H23", "assay": "NCI 60 cell-line screen", "format": "cell-based", "settings": "Homo sapiens, Lung, averaged, quadruplicate testing, read-out: negative log10 GI50 (converted)", "text": "as §1"}, "[16]": {"tested_on": "HOP-62", "assay": "NCI 60 cell-line screen", "format": "cell-based", "settings": "Homo sapiens, Lung, averaged, quadruplicate testing, read-out: negative log10 GI50 (converted)", "text": "as §1"}, "[17]": {"tested_on": "NCI-H522", "assay": "NCI 60 cell-line screen", "format": "cell-based", "settings": "Homo sapiens, Lung, averaged, quadruplicate testing, read-out: negative log10 GI50 (converted)", "text": "as §1"}, "[18]": {"tested_on": "MDA-MB-231/ATCC", "assay": "NCI 60 cell-line screen", "format": "cell-based", "settings": "Homo sapiens, Breast, averaged, quadruplicate testing, read-out: negative log10 GI50 (converted)", "text": "as §1"}, "[19]": {"tested_on": "SW-620", "assay": "NCI 60 cell-line screen", "format": "cell-based", "settings": "Homo sapiens, Colon, averaged, quadruplicate testing, read-out: negative log10 GI50 (converted)", "text": "as §1"}, "[20]": {"tested_on": "SK-MEL-2", "assay": "NCI 60 cell-line screen", "format": "cell-based", "settings": "Homo sapiens, Melanoma, averaged, quadruplicate testing, read-out: negative log10 GI50 (converted)", "text": "as §1"}, "[21]": {"tested_on": "TK-10", "assay": "NCI 60 cell-line screen", "format": "cell-based", "settings": "Homo sapiens, Kidney, averaged, quadruplicate testing, read-out: negative log10 GI50 (converted)", "text": "as §1"}, "[22]": {"tested_on": "NCI-H460", "assay": "NCI 60 cell-line screen", "format": "cell-based", "settings": "Homo sapiens, Lung, averaged, quadruplicate testing, read-out: negative log10 GI50 (converted)", "text": "as §1"}, "[23]": {"tested_on": "OVCAR-8", "assay": "NCI 60 cell-line screen", "format": "cell-based", "settings": "Homo sapiens, Ovary, averaged, quadruplicate testing, read-out: negative log10 GI50 (converted)", "text": "as §1"}, "[24]": {"tested_on": "HS-578T", "assay": "NCI 60 cell-line screen", "format": "cell-based", "settings": "Homo sapiens, Breast, averaged, quadruplicate testing, read-out: negative log10 GI50 (converted)", "text": "as §1"}, "[25]": {"tested_on": "MDA-MB-435", "assay": "NCI 60 cell-line screen", "format": "cell-based", "settings": "Homo sapiens, Breast, averaged, quadruplicate testing, read-out: negative log10 GI50 (converted)", "text": "as §1"}, "[26]": {"tested_on": "CCRF-CEM", "assay": "NCI 60 cell-line screen", "format": "cell-based", "settings": "Homo sapiens, Leukemia, averaged, quadruplicate testing, read-out: negative log10 GI50 (converted)", "text": "as §1"}, "[27]": {"tested_on": "DU-145", "assay": "NCI 60 cell-line screen", "format": "cell-based", "settings": "Homo sapiens, Prostate, averaged, quadruplicate testing, read-out: negative log10 GI50 (converted)", "text": "as §1"}, "[28]": {"tested_on": "UACC-257", "assay": "NCI 60 cell-line screen", "format": "cell-based", "settings": "Homo sapiens, Melanoma, averaged, quadruplicate testing, read-out: negative log10 GI50 (converted)", "text": "as §1"}, "[29]": {"tested_on": "OVCAR-4", "assay": "NCI 60 cell-line screen", "format": "cell-based", "settings": "Homo sapiens, Ovary, averaged, quadruplicate testing, read-out: negative log10 GI50 (converted)", "text": "as §1"}, "[30]": {"tested_on": "fungal vacuolar-type (H+)-ATPase (from Neurospora crassa)", "assay": "fungal vacuolar-type (H+)-ATPase inhibition, side-by-side test", "format": "biochemical", "text": "(§2) The inhibitory data were obtained using the same procedures and biological preparations described in Bowman et al., Proc. Natl. Acad. Sci. USA, 85, 7972-7976 (November 1988)."}, "[31]": {"tested_on": "mammalian vacuolar-type (H+)-ATPase (from chromaffin granule membranes)", "assay": "mammalian vacuolar-type (H+)-ATPase inhibition, side-by-side test", "format": "biochemical", "settings": "chromaffin granule membranes; side-by-side test", "text": "as §2"}, "[32]": {"tested_on": "vacuolar-type (H+)-ATPase derived from human kidney cells (hK)", "assay": "vacuolar-type (H+)-ATPase inhibition assay, membrane vesicles (hK)", "format": "biochemical", "settings": "bafilomycin-sensitive activity; oligomycin 5 μg/ml and vanadate 1 mM present; 37°, 30 minutes", "protocol": "(§3) Inhibition of bafilomycin-sensitive vacuolar-type (H+)-ATPase activity was measured in partially purified membrane vesicle preparations from human osteoclastoma cells (hOc), human renal cortical cells (hK), and macrophage cells (J774). The vesicles were prepared by appropriate adaptations of methods described in Gagliardi et al., J. Med. Chem., 41, 1568-1573 (1998); and Gagliardi et al., J. Med. Chem., 41, 1883-1893 (1998).\n(§4) Vacuolar-type (H+)-ATPase assays were performed in the presence of oligomycin (5 μg/ml) and vanadate (1 mM) as inhibitors of F- and P-ATPases, respectively. A […] method was used to quantitate the residual bafilomycin-sensitive vacuolar-type (H+)-ATPase activity (see Chan et al., Anal. Biochem., 157, 375-380 (1986)). The assay measures the release of inorganic phosphate from ATP at 37° during 30 minutes of incubation. The reaction is initiated by the addition of MgSO4 ([…])."}, "[33]": {"tested_on": "vacuolar-type (H+)-ATPase derived from macrophage cells (J774)", "assay": "vacuolar-type (H+)-ATPase inhibition assay, membrane vesicles (J774)", "format": "biochemical", "settings": "bafilomycin-sensitive activity; oligomycin 5 μg/ml and vanadate 1 mM present; 37°, 30 minutes", "protocol": "as §3, §4"}},
  "data": [
    {"smiles": "CC/C=C\\C=C/C(=O)N/C=C/CC1CC(O)C(C)C/C=C/Cc2cccc(O)c2C(=O)O1", "note": "(stereo not drawn) [salicylihalamide A]", "values": [
      {"measurement": "GI50", "setting": "[1]", "value": 10, "unit": "nM"},
      {"measurement": "GI50", "setting": "[2]", "value": 1, "unit": "nM"},
      {"measurement": "GI50", "setting": "[3]", "value": 26.9, "unit": "nM"},
      {"measurement": "GI50", "setting": "[4]", "value": 4.57, "unit": "nM"},
      {"measurement": "GI50", "setting": "[5]", "value": 28.2, "unit": "nM"},
      {"measurement": "GI50", "setting": "[6]", "value": 100, "unit": "nM"},
      {"measurement": "GI50", "setting": "[7]", "value": 11, "unit": "nM"},
      {"measurement": "GI50", "setting": "[8]", "value": 0.851, "unit": "nM"},
      {"measurement": "GI50", "setting": "[9]", "value": 3.63, "unit": "nM"},
      {"measurement": "GI50", "setting": "[10]", "value": 9.77, "unit": "nM"},
      {"measurement": "GI50", "setting": "[11]", "value": 191, "unit": "nM"},
      {"measurement": "GI50", "setting": "[12]", "value": 93.3, "unit": "nM"},
      {"measurement": "GI50", "setting": "[13]", "value": 5.01, "unit": "nM"},
      {"measurement": "GI50", "setting": "[14]", "value": 8.51, "unit": "nM"},
      {"measurement": "GI50", "setting": "[15]", "value": 282, "unit": "nM"},
      {"measurement": "GI50", "setting": "[16]", "value": 4.17, "unit": "nM"},
      {"measurement": "GI50", "setting": "[17]", "value": 55, "unit": "nM"},
      {"measurement": "GI50", "setting": "[18]", "value": 120, "unit": "nM"},
      {"measurement": "GI50", "setting": "[19]", "value": 28.8, "unit": "nM"},
      {"measurement": "GI50", "setting": "[20]", "value": 33.9, "unit": "nM"},
      {"measurement": "GI50", "setting": "[21]", "value": 1820, "unit": "nM"},
      {"measurement": "GI50", "setting": "[22]", "value": 0.977, "unit": "nM"},
      {"measurement": "GI50", "setting": "[23]", "value": 3.72, "unit": "nM"},
      {"measurement": "GI50", "setting": "[24]", "value": 1410, "unit": "nM"},
      {"measurement": "GI50", "setting": "[25]", "value": 15.1, "unit": "nM"},
      {"measurement": "GI50", "setting": "[26]", "value": 12.9, "unit": "nM"},
      {"measurement": "GI50", "setting": "[27]", "value": 5.5, "unit": "nM"},
      {"measurement": "GI50", "setting": "[28]", "value": 3.39, "unit": "nM"},
      {"measurement": "GI50", "setting": "[29]", "value": 5010, "unit": "nM"},
      {"measurement": "inhibitory activity against fungal vacuolar-type (H+)-ATPase", "setting": "[30]", "value": "little or no inhibitory activity"},
      {"measurement": "inhibitory activity against mammalian vacuolar-type (H+)-ATPase", "setting": "[31]", "value": "potent inhibitor"},
      {"measurement": "IC50", "setting": "[32]", "value": 0.3, "unit": "nM"},
      {"measurement": "IC50", "setting": "[33]", "value": 2.8, "unit": "nM"}
    ]}
  ]
}
